Experimental data reported in patent US10173991B2, “Sulfone amide linked benzothiazole inhibitors of endothelial lipase” (BRISTOL-MYERS SQUIBB COMPANY, priority 2014, dated 2019).

What follows are molecules tested against Endothelial lipase (EL) (Homo sapiens (Human), UniProt Q9Y5X9) (assay: Endothelial lipase (EL) enzymatic assay with fluorescent substrate A10070 in DMPG vesicles).
Type: biochemical
Summary of the method: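 Substrate A10070 sits in sonicated DMPG vesicles at 0.11 mole fraction. Lipase and compound preincubated 30 min, 37° C, in HEPES pH 8.0 buffer with CaCl2.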

Chain of Endothelial lipase (EL) (Q9Y5X9 21-500): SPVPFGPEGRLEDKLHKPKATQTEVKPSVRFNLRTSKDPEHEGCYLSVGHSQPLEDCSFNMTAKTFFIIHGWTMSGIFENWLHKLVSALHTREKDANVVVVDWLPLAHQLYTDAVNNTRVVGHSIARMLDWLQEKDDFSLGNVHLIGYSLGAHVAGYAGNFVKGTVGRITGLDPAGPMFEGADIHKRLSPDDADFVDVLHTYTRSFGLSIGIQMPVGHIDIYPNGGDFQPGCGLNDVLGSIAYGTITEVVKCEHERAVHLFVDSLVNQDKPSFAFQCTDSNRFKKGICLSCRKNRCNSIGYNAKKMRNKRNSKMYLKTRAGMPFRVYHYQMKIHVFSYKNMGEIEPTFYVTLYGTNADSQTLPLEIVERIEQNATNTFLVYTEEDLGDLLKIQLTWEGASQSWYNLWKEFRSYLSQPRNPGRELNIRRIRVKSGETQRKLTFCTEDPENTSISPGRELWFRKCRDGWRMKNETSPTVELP

SMILES | IC50
Cc1cc2nc(C(C(=O)NCC(=O)NC3CC3)S(=O)(=O)C(C)C)sc2cc1-c1ccc2[nH]c(=O)ccc2c1 (stereo not drawn) [Example 204, N-[(cyclopropyl-carbamoyl)methyl]-2-[5-methyl-6-(2-oxo-1,2-dihydroquinolin-6-yl)-1,3-benzothiazol-2-yl]-2-(propane-2-sulfonyl) acetamide] | 2 nM
O=C(CNC(=O)C(c1nc2ccc(-c3ccc(OCC4CC4)nc3)cc2s1)S(=O)(=O)Cc1ccc(F)cc1)NC1CC1 (stereo not drawn) [Example 205, N-[(cyclopropyl-carbamoyl)methyl]-2-{6-[6-(cyclopropyl-methoxy)pyridin-3-yl]-1,3-benzothiazol-2-yl}-2[(4-fluorophenyl)methanesulfonyl] acetamide] | 8 nM
COCCS(=O)(=O)C(C(=O)NCC(=O)NC1CC1)c1nc2c(F)cc(-c3cnc(OC)c(F)c3)cc2s1 (stereo not drawn) [Example 206, N-[(cyclopropyl-carbamoyl)methyl]-2-[4-fluoro-6-(5-fluoro-6-methoxypyridin-3-yl)-1,3-benzothiazol-2-yl]-2-(2-methoxyethane-sulfonyl) acetamide] | 9 nM
Cc1cc2nc(C(C(=O)NCC(=O)NC3CC3)S(=O)(=O)C(C)C)sc2cc1-c1ccc(=O)n(C(C)C)c1 (stereo not drawn) [Example 207, N-[(cyclopropyl-carbamoyl)methyl]-2-{5-methyl-6-[6-oxo-1-(propan-2-yl)-1,6-dihydropyridin-3-yl]-1,3-benzothiazol-2-yl}-2-(propane-2-sulfonyl) acetamide] | 10 nM
COCCS(=O)(=O)C(C(=O)NCC(=O)NC1CC1)c1nc2c(F)cc(-c3ccc(C(=O)N4CCOCC4)cc3)cc2s1 (stereo not drawn) [Example 208, N-[(cyclopropyl-carbamoyl)methyl]-2-{4-fluoro-6-[4-(morpholine-4-carbonyl)phenyl]-1,3-benzothiazol-2-yl}-2-(2-methoxyethane-sulfonyl) acetamide] | 11 nM
Cc1cc2nc(C(C(=O)NCC(=O)NC3CC3)S(=O)(=O)C(C)C)sc2cc1-c1ccc(C(F)(F)F)nc1 (stereo not drawn) [Example 209, N-[(cyclopropyl-carbamoyl)methyl]-2-{5-methyl-6-[6-(trifluoromethyl)pyridin-3-yl]-1,3-benzothiazol-2-yl}-2-(propane-2-sulfonyl) acetamide] | 11 nM
COCCNC(=O)c1cccc(-c2cc3sc(C(C(=O)NCC(=O)NC4CC4)S(=O)(=O)C(C)C)nc3cc2C)c1 (stereo not drawn) [Example 210, 3-[2-({[(cyclopropyl-carbamoyl)methyl]carbamoyl} (propane-2-sulfonyl)methyl)-5-methyl-1,3-benzothiazol-6-yl]-N-(2-methoxyethyl) benzamide] | 12 nM
COc1ncc(-c2cc3sc(C(C(=O)NCC(=O)NC4CC4)S(=O)(=O)C(C)C)nc3cc2C)cc1F (stereo not drawn) [Example 211, N-[(cyclopropyl-carbamoyl)methyl]-2-[6-(5-fluoro-6-methoxypyridin-3-yl)-5-methyl-1,3-benzothiazol-2-yl]-2-(propane-2-sulfonyl) acetamide] | 14 nM
Cc1ncc(-c2cc3sc(C(C(=O)NCC(=O)NC4CC4)S(=O)(=O)C(C)C)nc3cc2C)cn1 (stereo not drawn) [Example 212, N-[(cyclopropyl-carbamoyl)methyl]-2-[5-methyl-6-(2-methylpyrimidin-5-yl)-1,3-benzothiazol-2-yl]-2-(propane-2-sulfonyl) acetamide] | 15 nM
O=C(CNC(=O)C(c1nc2ccc(-c3ccc(C(=O)N4CCOCC4)cc3)cc2s1)S(=O)(=O)Cc1ccc(F)cc1)NC1CC1 (stereo not drawn) [Example 213, N-[(cyclopropyl-carbamoyl)methyl]-2-[(4-fluorophenyl)methanesulfonyl]-2-{6-[4-(morpholine-4-carbonyl)phenyl]-1,3-benzothiazol-2-yl}acetamide] | 15 nM
CN(C)C(=O)c1ccc(-c2ccc3nc(C(C(=O)NCC(=O)NC4CC4)S(=O)(=O)Cc4ccc(F)cc4)sc3c2)cc1 (stereo not drawn) [Example 214, 4-[2-({[(cyclopropyl-carbamoyl)methyl]carbamoyl}(4-fluorophenyl)methanesulfonyl-methyl)-1,3-benzothiazol-6-yl]-N,N-dimethyl-benzamide] | 18 nM
Cc1cc2nc(C(C(=O)NCC(=O)NC3CC3)S(=O)(=O)C(C)C)sc2cc1-c1ccc(C(=O)N(C)C)cc1 (stereo not drawn) [Example 215, 4-[2-({[(cyclopropyl-carbamoyl)methyl]carbamoyl} (propane-2-sulfonyl)methyl)-5-methyl-1,3-benzothiazol-6-yl]-N,N-dimethyl-benzamide] | 19 nM
COCCS(=O)(=O)C(C(=O)NCC(=O)NC1CC1)c1nc2c(F)cc(-c3ccc4[nH]c(=O)ccc4c3)cc2s1 (stereo not drawn) [Example 216, N-[(cyclopropyl-carbamoyl)methyl]-2-[4-fluoro-6-(2-oxo-1,2-dihydroquinolin-6-yl)-1,3-benzothiazol-2-yl]-2-(2-methoxyethane-sulfonyl) acetamide] | 19 nM
COCCS(=O)(=O)C(C(=O)NCC(=O)NC1CC1)c1nc2c(F)cc(-c3ccc(C(F)(F)F)nc3)cc2s1 (stereo not drawn) [Example 217, N-[(cyclopropyl-carbamoyl)methyl]-2-{4-fluoro-6-[6-(trifluoromethyl)pyridin-3-yl]-1,3-benzothiazol-2-yl}-2-(2-methoxyethane-sulfonyl) acetamide] | 26 nM
COCCNC(=O)c1ccc(-c2cc(F)c3nc(C(C(=O)NCC(=O)NC4CC4)S(=O)(=O)CCOC)sc3c2)cc1 (stereo not drawn) [Example 218, 4-[2-({[(cyclopropyl-carbamoyl)methyl]carbamoyl}(2-methoxyethane-sulfonyl)methyl)-4-fluoro-1,3-benzothiazol-6-yl]-N-(2-methoxyethyl) benzamide] | 28 nM
COCCS(=O)(=O)C(C(=O)NCC(=O)NC1CC1)c1nc2cc(OC)c(-c3cccnc3F)cc2s1 (stereo not drawn) [Example 219, N-[(cyclopropyl-carbamoyl)methyl]-2-[6-(2-fluoropyridin-3-yl)-5-methoxy-1,3-benzothiazol-2-yl]-2-(2-methoxyethane-sulfonyl) acetamide] | 39 nM
COCCS(=O)(=O)C(C(=O)NCC(=O)NC1CC1)c1nc2c(F)cc(-c3ccn(C)c(=O)c3)cc2s1 (stereo not drawn) [Example 220, N-[(cyclopropyl-carbamoyl)methyl]-2-[4-fluoro-6-(1-methyl-2-oxo-1,2-dihydropyridin-4-yl)-1,3-benzothiazol-2-yl]-2-(2-methoxyethane-sulfonyl) acetamide] | 60 nM
COCCS(=O)(=O)C(C(=O)NCC(=O)NC1CC1)c1nc2c(F)cc(-c3cncnc3)cc2s1 (stereo not drawn) [Example 221, N-[(cyclopropyl-carbamoyl)methyl]-2-[4-fluoro-6-(pyrimidin-5-yl)-1,3-benzothiazol-2-yl]-2-(2-methoxyethane-sulfonyl) acetamide] | 61 nM
CC(C)(C)OC(=O)N1CCC(S(=O)(=O)C(C(=O)NCC(=O)NC2CC2)c2nc3ccc(-c4ccc(F)nc4)cc3s2)CC1 (stereo not drawn) [Example 222, tert-butyl 4-({[(cyclopropyl-carbamoyl)methyl]carbamoyl}[6-(6-fluoropyridin-3-yl)-1,3-benzothiazol-2-yl]methanesulfonyl) piperidine-1-carboxylate] | 78 nM
COCCS(=O)(=O)C(C(=O)NCC(=O)NC1CC1)c1nc2c(F)cc(-c3cnc(C4CC4)nc3)cc2s1 (stereo not drawn) [Example 223, N-[(cyclopropyl-carbamoyl)methyl]-2-[6-(2-cyclopropyl-pyrimidin-5-yl)-4-fluoro-1,3-benzothiazol-2-yl]-2-(2-methoxyethane-sulfonyl) acetamide] | 80 nM
CN(C)c1ccc(-c2ccc3nc(C(C(=O)NCC(=O)NC4CC4)S(=O)(=O)Cc4ccc(F)cc4)sc3c2)cn1 (stereo not drawn) [Example 224, N-[(cyclopropyl-carbamoyl)methyl]-2-{6-[6-(dimethylamino)pyridin-3-yl]-1,3-benzothiazol-2-yl}-2-[(4-fluorophenyl)methanesulfonyl] acetamide] | 86 nM
COCCS(=O)(=O)C(C(=O)NCC(=O)NC1CC1)c1nc2c(F)cc(-c3ccc(=O)n(C(C)C)c3)cc2s1 (stereo not drawn) [Example 225, N-[(cyclopropyl-carbamoyl)methyl]-2-{4-fluoro-6-[6-oxo-1-(propan-2-yl)-1,6-dihydropyridin-3-yl]-1,3-benzothiazol-2-yl}-2-(2-methoxyethane-sulfonyl) acetamide] | 88 nM
COCCNC(=O)c1ccc(-c2ccc3nc(C(C(=O)NCC(=O)NC4CC4)S(=O)(=O)Cc4ccc(F)cc4)sc3c2)cc1 (stereo not drawn) [Example 226, 4-[2-({[(cyclopropyl-carbamoyl)methyl]carbamoyl}(4-fluorophenyl)methanesulfonyl-methyl)-1,3-benzothiazol-6-yl]-N-(2-methoxyethyl) benzamide] | 91 nM
CC(C)(C)OC(=O)N1CC(S(=O)(=O)C(C(=O)NCC(=O)NC2CC2)c2nc3ccc(-c4ccc(F)nc4)cc3s2)C1 (stereo not drawn) [Example 227, tert-butyl 3-({[(cyclopropyl-carbamoyl)methyl]carbamoyl}[6-(6-fluoropyridin-3-yl)-1,3-benzothiazol-2-yl]methanesulfonyl) azetidine-1-carboxylate] | 103 nM
O=C(CNC(=O)C(c1nc2ccc(-c3cccnc3F)cc2s1)S(=O)(=O)Cc1ccc(F)cc1)NC1CC1 (stereo not drawn) [Example 229, N-[(cyclopropyl-carbamoyl)methyl]-2-[(4-fluorophenyl)methanesulfonyl]-2-[6-(2-fluoropyridin-3-yl)-1,3-benzothiazol-2-yl]acetamide] | 150 nM
CC(C)n1cc(-c2ccc3nc(C(C(=O)NCC(=O)NC4CC4)S(=O)(=O)Cc4cccc(C#N)c4)sc3c2)ccc1=O (stereo not drawn) [Example 230, 2-[(3-cyanophenyl)methanesulfonyl]-N-[(cyclopropyl-carbamoyl)methyl]-2-{6-[6-oxo-1-(propan-2-yl)-1,6-dihydropyridin-3-yl]-1,3-benzothiazol-2-yl}acetamide] | 46 nM
Cc1ncc(-c2cc3sc(C(C(=O)NCC(=O)NC4CC4)S(=O)(=O)C(C)C)nc3cc2F)cn1 (stereo not drawn) [Example 231, N-[(cyclopropyl-carbamoyl)methyl]-2-[5-fluoro-6-(2-methylpyrimidin-5-yl)-1,3-benzothiazol-2-yl]-2-(propane-2-sulfonyl) acetamide] | 11 nM
